# Measurements published in paper PMC6831561, “Pharmacological and Behavioral Effects of the Synthetic Cannabinoid AKB48 in Rats” (Frontiers in Neuroscience, 2019).
# How the values were obtained:
# Format in all cases: in vivo
# [1] = system: rats; assay: Visual placing response test
# Description: Visual response was verified by two behavioral tests that evaluated the ability of the rat to capture visual information even when stationary (the visual object response) or when moving (the visual placing response). The visual object response test was used to evaluate the ability of the rat to see an object approaching from the front or the side, inducing the animal to shift or turn its head or to retreat (modified from [Ossato et al., 2015]; [Marti et al., 2019]). For the frontal visual response, a white horizontal bar was moved frontally to the rat’s head; the maneuver was repeated three times. For the lateral visual response, a small dentist’s mirror was moved into the rat’s field of view in a horizontal arc until the stimulus was between the rat’s eyes. The procedure was conducted bilaterally and was repeated three times. The score assigned was a value of 1 if there was a reflection in the rat movement or 0 if not. The total value was calculated by adding the scores obtained in the frontal with that obtained in the lateral visual object response (overall score 9). Evaluation of the visual object response was measured at 0, 10, 30, 60, 120, and 180 min post-injection. The visual placing response test was performed using a tail suspension-modified apparatus able to bring the rat toward the floor at a constant speed of 10 cm/sec (modified from [Ossato et al., 2015]; [Marti et al., 2019]). The downward movement of the rat was videotaped. Frame-by-frame analysis allowed us to evaluate the beginning of the reaction of the rat while it was close to the floor. When the rat started the reaction, an electronic ruler evaluated the perpendicular distance in millimeters between the eyes of the rat to the floor. The naïve rats perceived the floor and prepared for contact at a distance of about 27 ± 4.5 mm. Evaluation of the visual placing response was measured at 0, 15, 35, 65, 125, and 190 min post-injection.
# [2] = system: rats; assay: Core and surface body temperature
# Method: To better assess the effects of the ligands on thermoregulation, we measured both changes in the core (rectal) and surface (ventral fur) temperature. The core temperature was evaluated by a probe (1 mm diameter) that was gently inserted, after lubrication with liquid Vaseline, into the rectum of the rat (to about 2 cm) and left in position until the stabilization of the temperature (about 10 sec; [De Luca et al., 2015]; [Vigolo et al., 2015]). The probe was connected to a Cole Parmer digital thermometer, model 8402. The surface temperature was measured by a Microlife FR 1DZ1 digital infrared thermometer, placed 1 cm from the surface of the abdomen of the rat ([Vigolo et al., 2015]). Core and surface body temperatures were measured at 0, 15, 35, 65, 125, and 190 min.
# [3] = system: rats; assay: Startle and pre-pulse inhibition
# Method: As previously reported ([Marti et al., 2019]), rats were tested for acoustic startle reactivity in startle chambers (Ugo Basile apparatus, Milan, Italy) consisting of a sound-attenuated, lighted, and ventilated enclosure holding a transparent non-restrictive Perspex® cage (modified version for rats 200 × 90 × 80 mm). A loudspeaker mounted laterally by the holder produced all acoustic stimuli. Peaks and amplitudes of the startle response were detected by a load cell. At the onset of the startling stimulus, 300 ms readings were recorded, and the wave amplitude evoked by the movement of the rat startle response was measured. Acoustic startle test sessions consisted of startle trials (pulse-alone) and pre-pulse trials (pre-pulse + pulse). The pulse-alone trial consisted of a 40 ms 120 dB pulse. Pre-pulse + pulse trial sequences consisted of a 20 ms acoustic pre-pulse, 80 ms delay, and then a 40 ms, 120 dB startle pulse (100 ms onset–onset). There was an average of 15 s (range = from 9 to 21 s) between the trials. Each startle session began with a 10 min acclimation period with a 65 dB broadband white noise that was present continuously throughout the session. The test session contained 40 trials composed by pulse-alone and pre-pulse + pulse trials (with three different pre-pulses of 68, 75, and 85 dB) presented in a pseudorandomized order. Rats were placed in the startle chambers 5 min after treatment with AKB48. The entire startle/PPI test lasted 20 min. The pre-pulse inhibition (PPI) was expressed as the percentage decrease in the amplitude of the startle reactivity caused by the presentation of the pre-pulse. AKB48 (0.1–3 mg/kg i.p.) was administered intraperitoneally, and startle/PPI responses were recorded 15 min (including the 10 min acclimation period) after drug injections.
# [4] = system: rats; assay: Overall tactile response (vibrissae, pinna, corneal reflexes)
# Method: Tactile responses were verified through vibrissae, pinna, and corneal reflexes ([Marti et al., 2019]), and data were expressed as the sum of these parameters. The vibrissae reflex was evaluated by touching the vibrissae (right and left) with a thin hypodermic needle once per side, giving a value of 1 if there was a reflex (turning of the head to the side of touch or vibrissae movement) or 0 if not present (overall score 2). Evaluation of the vibrissae reflex was measured at 0, 10, 30, 60, 120, and 180 min post-injection. The pinna reflex was assessed by touching the pavilions (left and right) with a thin hypodermic needle, the interior pavilions first. This test was repeated twice per side, giving a value of 1 if there was a reflex and 0 if not present (overall score 4). Evaluation of the pinna reflex was measured at 0, 10, 30, 60, 120, and 180 min post-injection. The corneal reflex was assessed by gently touching the cornea with a thin hypodermic needle and evaluating the response, assigning a value of 1 if the rat moved only its head, 2 if it only closed its eyelid, and 3 if it closed its lid and moved its head. The procedure was conducted bilaterally (overall score 6) and was measured at 0, 10, 30, 60, 120, and 180 min post-injection.
# [5] = AKB48 0.1–3 mg/kg i.p., 15 min after treatment
# [6] = AM251 1 mg/kg i.p. before AKB48 3 mg/kg i.p.
SMILES,persistence of the reduction of visual placing response ([1]; AKB48 3 mg/kg i.p.),"visual placing response ([1]; AKB48 0.1–3 mg/kg i.p., 190 min observation)",time at which the core temperature effect was evident ([2]; AKB48 3 mg/kg i.p.),surface body temperature ([2]; AKB48 0.1–3 mg/kg i.p.),"core body temperature ([2]; AKB48, only at 3 mg/kg i.p.)","PPI at 68 dB of pre-pulse intensity [3, 5]","PPI at 75 dB of pre-pulse intensity [3, 5]","inhibition at 3 mg/kg ([3]; Rattus norvegicus, 0.25 h, AKB48 3 mg/kg, 15 min after administration, read-out: inhibition of startle amplitude)","reduction of overall tactile response ([4]; AKB48, only at the highest dose (3 mg/kg i.p.))",persistence of the reduction of tactile response ([4]; AKB48 highest dose (3 mg/kg i.p.)),"visual placing response, AM251 alone ([1]; AM251 1 mg/kg i.p. alone)","visual impairment (placing) induced by AKB48, after AM251 pre-treatment ([1]; AM251 1 mg/kg i.p. before AKB48 3 mg/kg)",response to AM251 alone in the body temperature section ([2]; AM251 1 mg/kg i.p. alone),"hypothermia induced by AKB48, after AM251 pre-treatment [2, 6]","inhibitory effect of AKB48 on PPI at 68 dB, with AM251 ([3]; AM251 1 mg/kg i.p. + AKB48)","inhibitory effect of AKB48 on PPI at 75 dB, with AM251 ([3]; AM251 1 mg/kg i.p. + AKB48)","inhibitory effect of AKB48 on startle, with AM251 ([3]; AM251 1 mg/kg i.p. + AKB48)","startle response, AM251 alone ([3]; AM251 1 mg/kg i.p. alone)",response to AM251 alone in the tactile response section ([4]; AM251 1 mg/kg i.p. alone (data not shown)),"inhibition of overall tactile response induced by AKB48, after AM251 pre-treatment [4, 6]"
"CCCCCn1nc(C(=O)NC23CC4CC(CC(C4)C2)C3)c2ccccc21 [AKB48, N-(1-adamantyl)-1-pentyl-1H-indazole-3-carboxamide]",up to 190 min,reduced,65 min,did not affect,reduced,inhibited,inhibited,~50%,~23%,up to 60 min,,,,,,,,,,
"Cc1c(C(=O)NN2CCCCC2)nn(-c2ccc(Cl)cc2Cl)c1-c1ccc(I)cc1 [AM251, 1-(2,4-dichlorophenyl)-5-(4-iodophenyl)-4-methyl-N-(piperidin-1-yl)-1H-pyrazole-3-carboxamide, reference compound]",,,,,,,,,,,did not alter,prevented,did not alter,prevented,prevented,prevented,prevented,did not modify,did not alter,prevented
